We go through one compound from article PMC5218480 (PLoS ONE, 2017).

For this experiment, the system named is MV-4-11 cells. Nature of the experiment: Gene expression microarray analysis (Affymetrix PrimeView) and GSEA. Further details: RFU PODN (11730768_x_at) / Fold change /veh PODN (11730768_x_at) / RFU LINC00158 (11744669_a_at) / Fold change /veh LINC00158 (11744669_a_at) / RFU DUSP10 (11751237_a_at) / Fold change /veh DUSP10 (11751237_a_at) / RFU ID3 (11757404_x_at) / Fold change /veh ID3 (11757404_x_at) / RFU PLEKHG5 (11737974_s_at) / Fold change /veh PLEKHG5 (11737974_s_at) / RFU LRRC4B (11730491_at) / Fold change /veh LRRC4B (11730491_at) / RFU GIMAP4 (11747438_a_at) / Fold change /veh GIMAP4 (11747438_a_at) / RFU KRT8 (11758183_x_at) / Fold change /veh KRT8 (11758183_x_at) / RFU CNN1 (11734310_a_at) / Fold change /veh CNN1 (11734310_a_at) / RFU VPS37D (11726825_at) / Fold change /veh VPS37D (11726825_at) / RFU C10orf10 (11716522_x_at) / Fold change /veh C10orf10 (11716522_x_at) / RFU KIR2DL2 /// KIR2DL4 /// KIR2DL5A /// KIR2DL5B /// KIR2DS1 /// KIR2DS2 /// KIR2DS3 /// KIR2DS4 /// KIR3DL3 /// KIR3DL3 /// KIR3DS1 (11738374_at) / Fold change /veh KIR2DL2 /// KIR2DL4 /// KIR2DL5A /// KIR2DL5B /// KIR2DS1 /// KIR2DS2 /// KIR2DS3 /// KIR2DS4 /// KIR3DL3 /// KIR3DL3 /// KIR3DS1 (11738374_at) / RFU C1QL1 (11718748_at) / Fold change /veh C1QL1 (11718748_at) / RFU TMPRSS4 (11747572_a_at) / Fold change /veh TMPRSS4 (11747572_a_at) / RFU HAMP (11756126_x_at) / Fold change /veh HAMP (11756126_x_at) / RFU RNFT2 (11725882_a_at) / Fold change /veh RNFT2 (11725882_a_at) / RFU NR4A2 (11747474_a_at) / Fold change /veh NR4A2 (11747474_a_at) / RFU ABCC12 (11746883_a_at) / Fold change /veh ABCC12 (11746883_a_at) / RFU TMEM136 (11760407_x_at) / Fold change /veh TMEM136 (11760407_x_at) / RFU CLDN22 /// WWC2 (11732394_at) / Fold change /veh CLDN22 /// WWC2 (11732394_at) / RFU HLA-DPB1 (11760878_x_at) / Fold change /veh HLA-DPB1 (11760878_x_at) / RFU SPINT1 (11716480_a_at) / Fold change /veh SPINT1 (11716480_a_at) / RFU GAP43 (11754022_s_at) / Fold change /veh GAP43 (11754022_s_at) / RFU A4GNT (11735810_at) / Fold change /veh A4GNT (11735810_at) / RFU PRB3 (11715151_x_at) / Fold change /veh PRB3 (11715151_x_at) / RFU TUBB4B (11761932_at) / Fold change /veh TUBB4B (11761932_at) / RFU CAPN14 (11732068_a_at) / Fold change /veh CAPN14 (11732068_a_at) / RFU TMCC2 (11721928_a_at) / Fold change /veh TMCC2 (11721928_a_at) / RFU IRGQ (11745062_a_at) / Fold change /veh IRGQ (11745062_a_at) / RFU FAM174B (11720279_a_at) / Fold change /veh FAM174B (11720279_a_at) / RFU TMPRSS4 (11748680_a_at) / Fold change /veh TMPRSS4 (11748680_a_at) / RFU FAM212B (11763350_a_at) / Fold change /veh FAM212B (11763350_a_at) / RFU PLEKHG5 (11743358_a_at) / Fold change /veh PLEKHG5 (11743358_a_at) / RFU ZSCAN30 (11745921_a_at) / Fold change /veh ZSCAN30 (11745921_a_at) / RFU CMKLR1 (11741424_a_at) / Fold change /veh CMKLR1 (11741424_a_at) / RFU LOC101060620 /// MAPK8IP1 (11723275_at) / Fold change /veh LOC101060620 /// MAPK8IP1 (11723275_at) / RFU SPTSSB (11747773_x_at) / Fold change /veh SPTSSB (11747773_x_at) / RFU PRSS12 (11739890_at) / Fold change /veh PRSS12 (11739890_at) / RFU BIN1 (11741810_x_at) / Fold change /veh BIN1 (11741810_x_at) / RFU WNT11 (11732464_a_at) / Fold change /veh WNT11 (11732464_a_at) / RFU C10orf10 (11716521_a_at) / Fold change /veh C10orf10 (11716521_a_at) / RFU C5orf56 (11738089_at) / Fold change /veh C5orf56 (11738089_at) / RFU CYB561 (11721691_x_at) / Fold change /veh CYB561 (11721691_x_at) / RFU ANKRD19P (11752326_a_at) / Fold change /veh ANKRD19P (11752326_a_at) / RFU OR2T12 /// OR2T33 /// OR2T8 (11738714_s_at) / Fold change /veh OR2T12 /// OR2T33 /// OR2T8 (11738714_s_at) / RFU VCAN (11748164_a_at) / Fold change /veh VCAN (11748164_a_at) / RFU JSRP1 (11732532_at) / Fold change /veh JSRP1 (11732532_at) / RFU KRTAP10-11 (11738290_x_at) / Fold change /veh KRTAP10-11 (11738290_x_at) / RFU MYO3A (11730013_a_at) / Fold change /veh MYO3A (11730013_a_at) / RFU EBF3 (11725865_a_at) / Fold change /veh EBF3 (11725865_a_at) / RFU CAMK2N1 (11719241_x_at) / Fold change /veh CAMK2N1 (11719241_x_at) / RFU C5orf56 (11738088_a_at) / Fold change /veh C5orf56 (11738088_a_at) / RFU OLFML3 (11715873_a_at) / Fold change /veh OLFML3 (11715873_a_at) / RFU LOC100653217 /// NTM (11731650_a_at) / Fold change /veh LOC100653217 /// NTM (11731650_a_at) / RFU MAPK11 (11762145_a_at) / Fold change /veh MAPK11 (11762145_a_at) / RFU FIZ1 (11724087_x_at) / Fold change /veh FIZ1 (11724087_x_at) / RFU OASL (11726364_x_at) / Fold change /veh OASL (11726364_x_at) / RFU SOX15 (11748057_x_at) / Fold change /veh SOX15 (11748057_x_at) / RFU CD79A (11719716_a_at) / Fold change /veh CD79A (11719716_a_at) / RFU HIST1H1D (11736915_at) / Fold change /veh HIST1H1D (11736915_at) / RFU CASKIN2 (11723855_a_at) / Fold change /veh CASKIN2 (11723855_a_at) / RFU LOC730098 (11760151_x_at) / Fold change /veh LOC730098 (11760151_x_at) / RFU OR4N2 (11742367_at) / Fold change /veh OR4N2 (11742367_at) / RFU PRRT2 (11749266_a_at) / Fold change /veh PRRT2 (11749266_a_at) / RFU SNX32 (11753110_a_at) / Fold change /veh SNX32 (11753110_a_at) / RFU CDHR5 (11726645_a_at) / Fold change /veh CDHR5 (11726645_a_at) / RFU RCAN1 (11760418_a_at) / Fold change /veh RCAN1 (11760418_a_at) / RFU FAM167A (11723789_a_at) / Fold change /veh FAM167A (11723789_a_at) / RFU FAM26E (11764081_at) / Fold change /veh FAM26E (11764081_at) / RFU ISYNA1 (11749810_s_at) / Fold change /veh ISYNA1 (11749810_s_at) / RFU ACY1 (11761880_at) / Fold change /veh ACY1 (11761880_at) / RFU 11764098_at / Fold change /veh 11764098_at / RFU SAMD14 (11745864_x_at) / Fold change /veh SAMD14 (11745864_x_at) / RFU NPB (11741838_a_at) / Fold change /veh NPB (11741838_a_at) / RFU TMPRSS6 (11731388_a_at) / Fold change /veh TMPRSS6 (11731388_a_at) / RFU KRTAP10-2 (11738614_at) / Fold change /veh KRTAP10-2 (11738614_at) / RFU ARHGAP8 /// PRR5-ARHGAP8 (11727945_x_at) / Fold change /veh ARHGAP8 /// PRR5-ARHGAP8 (11727945_x_at) / RFU KRTAP5-7 /// NADSYN1 (11734609_at) / Fold change /veh KRTAP5-7 /// NADSYN1 (11734609_at) / RFU RASL12 (11751679_a_at) / Fold change /veh RASL12 (11751679_a_at) / RFU CDKN2B (11736163_a_at) / Fold change /veh CDKN2B (11736163_a_at) / RFU PRF1 (11729649_at) / Fold change /veh PRF1 (11729649_at) / RFU, ZNF638 /// ZNF638-IT1 / Fold change vs veh, ZNF638 /// ZNF638-IT1 / RFU, PANK3 / Fold change vs veh, PANK3 / RFU, SH3YL1 / Fold change vs veh, SH3YL1 / RFU, ZEB2 / Fold change vs veh, ZEB2 / RFU, NRIP1 / Fold change vs veh, NRIP1 / RFU, PTTG1IP / Fold change vs veh, PTTG1IP / RFU, CAPN2 / Fold change vs veh, CAPN2 / RFU, MED14 / Fold change vs veh, MED14 / RFU, SNORA58 / Fold change vs veh, SNORA58 / RFU, C1orf63 / Fold change vs veh, C1orf63 / RFU, LRRFIP1 / Fold change vs veh, LRRFIP1 / RFU, NDUFAF7 / Fold change vs veh, NDUFAF7 / RFU, SLC12A2 / Fold change vs veh, SLC12A2 / RFU, IBTK / Fold change vs veh, IBTK / RFU, ESF1 / Fold change vs veh, ESF1 / Fold change vs veh, TMEM50B / RFU, TAOK1 / Fold change vs veh, TAOK1 / RFU, ACBD3 / Fold change vs veh, ACBD3 / RFU, TMA16 / Fold change vs veh, TMA16 / RFU, RWDD3 / Fold change vs veh, RWDD3 / RFU, BCAT1 / Fold change vs veh, BCAT1 / RFU, EDEM3 / Fold change vs veh, EDEM3 / RFU, TMEM33 / Fold change vs veh, TMEM33 / RFU, WDR75 / Fold change vs veh, WDR75 / RFU, AHCTF1 / Fold change vs veh, AHCTF1 / RFU, TFRC / Fold change vs veh, TFRC / RFU, ZDHHC17 / Fold change vs veh, ZDHHC17 / RFU, NOM1 / Fold change vs veh, NOM1 / RFU, ARL8B / Fold change vs veh, ARL8B / RFU, ZBTB11 / Fold change vs veh, ZBTB11 / RFU, TAMM41 / Fold change vs veh, TAMM41 / RFU, KIAA1704 /// LOC100996395 / Fold change vs veh, KIAA1704 /// LOC100996395 / RFU, ING1 / Fold change vs veh, ING1 / RFU, TRMT61B / Fold change vs veh, TRMT61B / RFU, FUBP3 / Fold change vs veh, FUBP3 / RFU, TP53 / Fold change vs veh, TP53 / RFU, TNKS2 / Fold change vs veh, TNKS2 / RFU, ZFP14 / Fold change vs veh, ZFP14 / RFU, ACTR2 / Fold change vs veh, ACTR2 / RFU, PPP3R1 / Fold change vs veh, PPP3R1 / RFU, PIK3R1 / Fold change vs veh, PIK3R1 / RFU, HNRNPA1 / Fold change vs veh, HNRNPA1 / RFU, RNF170 / Fold change vs veh, RNF170 / RFU, ZNF28 / Fold change vs veh, ZNF28 / RFU, RNGTT / Fold change vs veh, RNGTT / RFU, OGT / Fold change vs veh, OGT / RFU, BRD1 / Fold change vs veh, BRD1 / RFU, MARS / Fold change vs veh, MARS / RFU, ZNF655 / Fold change vs veh, ZNF655 / RFU, FAHD1 / Fold change vs veh, FAHD1 / RFU, BDP1 / Fold change vs veh, BDP1 / RFU, LRRCC1 / Fold change vs veh, LRRCC1 / RFU, ARID1A / Fold change vs veh, ARID1A / RFU, ZNF146 / Fold change vs veh, ZNF146 / RFU, ZNF330 / Fold change vs veh, ZNF330 / RFU, GPN3 / Fold change vs veh, GPN3 / RFU, C9orf123 / Fold change vs veh, C9orf123 / RFU, N4BP2L2 / Fold change vs veh, N4BP2L2 / RFU, ARFIP1 / Fold change vs veh, ARFIP1 / RFU, FAM179B / Fold change vs veh, FAM179B / RFU, BCL10 / Fold change vs veh, BCL10 / RFU, UHRF1BP1L / Fold change vs veh, UHRF1BP1L / RFU, BET1 / Fold change vs veh, BET1 / RFU, CNOT2 / Fold change vs veh, CNOT2 / RFU, ZNF268 / Fold change vs veh, ZNF268 / Fold change vs veh, ZNF507 / RFU, DGCR2 / Fold change vs veh, DGCR2 / RFU, WDSUB1 / Fold change vs veh, WDSUB1 / Fold change vs veh, HSP90B1 /// MIR3652 / RFU, ADSS / Fold change vs veh, ADSS / RFU, GK / Fold change vs veh, GK / RFU, ZNF148 / Fold change vs veh, ZNF148 / RFU, TAF9 / Fold change vs veh, TAF9 / RFU, SLC1A5 / Fold change vs veh, SLC1A5 / RFU, SLMO2 / Fold change vs veh, SLMO2 / RFU, ABCC4 / Fold change vs veh, ABCC4 / RFU, LOC101060439 /// RAP1B / Fold change vs veh, LOC101060439 /// RAP1B / RFU, RFX7 / Fold change vs veh, RFX7 / RFU, GTPBP10 / Fold change vs veh, GTPBP10 / RFU, CNEP1R1 / Fold change vs veh, CNEP1R1 / RFU, BIVM-ERCC5 /// ERCC5 / Fold change vs veh, BIVM-ERCC5 /// ERCC5 / RFU, ILF3 / Fold change vs veh, ILF3 / RFU 11762660_at / Fold change /veh 11762660_at / RFU VCAN (11757783_s_at) / Fold change /veh VCAN (11757783_s_at) / RFU DDX43 (11728927_at) / Fold change /veh DDX43 (11728927_at) / RFU KRT8 (11758188_x_at) / Fold change /veh KRT8 (11758188_x_at) / RFU NKD1 (11759106_at) / Fold change /veh NKD1 (11759106_at) / RFU SRD5A1 (11742802_a_at) / Fold change /veh SRD5A1 (11742802_a_at) / RFU TPSAB1 /// TPSB2 (11721975_s_at) / Fold change /veh TPSAB1 /// TPSB2 (11721975_s_at) / RFU GSTM3 (11746129_a_at) / Fold change /veh GSTM3 (11746129_a_at) / RFU IL23R (11737362_x_at) / Fold change /veh IL23R (11737362_x_at) / RFU TMEM51 (11727254_a_at) / Fold change /veh TMEM51 (11727254_a_at) / RFU PIWIL2 (11732686_x_at) / Fold change /veh PIWIL2 (11732686_x_at) / RFU ORM1 (11744905_x_at) / Fold change /veh ORM1 (11744905_x_at) / RFU CCDC152 (11743942_at) / Fold change /veh CCDC152 (11743942_at) / RFU ECM1 (11717891_a_at) / Fold change /veh ECM1 (11717891_a_at) / RFU IL23R (11748794_a_at) / Fold change /veh IL23R (11748794_a_at) / RFU TNFAIP8L3 (11732012_x_at) / Fold change /veh TNFAIP8L3 (11732012_x_at) / RFU MBOAT4 (11741988_at) / Fold change /veh MBOAT4 (11741988_at) / RFU 11764193_at / Fold change /veh 11764193_at / RFU TMEM53 (11763286_at) / Fold change /veh TMEM53 (11763286_at) / RFU MAGEB2 (11727129_at) / Fold change /veh MAGEB2 (11727129_at) / RFU TMEM200A (11744735_a_at) / Fold change /veh TMEM200A (11744735_a_at) / RFU CCDC152 (11751479_a_at) / Fold change /veh CCDC152 (11751479_a_at) / RFU FAM211A (11726209_a_at) / Fold change /veh FAM211A (11726209_a_at) / RFU RGS16 (11746705_a_at) / Fold change /veh RGS16 (11746705_a_at) / RFU VCAN (11755009_s_at) / Fold change /veh VCAN (11755009_s_at) / RFU RHOB (11743442_s_at) / Fold change /veh RHOB (11743442_s_at) / RFU RGS16 (11720943_a_at) / Fold change /veh RGS16 (11720943_a_at) / RFU RGS16 (11720944_at) / Fold change /veh RGS16 (11720944_at) / RFU, VPS4B / Fold change vs veh, VPS4B / RFU, CREB1 / Fold change vs veh, CREB1 / RFU, DNAJC13 / Fold change vs veh, DNAJC13 / RFU, GNAQ / Fold change vs veh, GNAQ / RFU, CDK5R1 / Fold change vs veh, CDK5R1 / RFU, ZRANB3 / Fold change vs veh, ZRANB3 / RFU, CUL4A / Fold change vs veh, CUL4A / RFU, CCNY / Fold change vs veh, CCNY / RFU, UFL1 / Fold change vs veh, UFL1 / RFU, COG3 / Fold change vs veh, COG3 / RFU, DIAPH2 / Fold change vs veh, DIAPH2 / RFU, SKA2 / Fold change vs veh, SKA2 / RFU, AFF3 / Fold change vs veh, AFF3 / RFU, LMF1 / Fold change vs veh, LMF1 / RFU, IPO11 / Fold change vs veh, IPO11 / RFU, DFFB / Fold change vs veh, DFFB / RFU, FOXP1 / Fold change vs veh, FOXP1 / RFU, CARD8 / Fold change vs veh, CARD8 / RFU, STRN3 / Fold change vs veh, STRN3 / RFU, ADK / Fold change vs veh, ADK / RFU, RASSF2 / Fold change vs veh, RASSF2 / RFU, WIPF1 / Fold change vs veh, WIPF1 / RFU, LARP1B / Fold change vs veh, LARP1B / RFU, RASA1 / Fold change vs veh, RASA1 / RFU, RB1 / Fold change vs veh, RB1 / RFU, PPFIA1 / Fold change vs veh, PPFIA1 / RFU, MAT2A / Fold change vs veh, MAT2A / RFU, CCT5 / Fold change vs veh, CCT5 / RFU, WDR92 / Fold change vs veh, WDR92 / RFU, CUX1 / Fold change vs veh, CUX1 / RFU, TTC7A / Fold change vs veh, TTC7A / RFU, TMEM135 / Fold change vs veh, TMEM135 / RFU, DEPTOR / Fold change vs veh, DEPTOR / RFU, CPM / Fold change vs veh, CPM / RFU, DNAJB6 / Fold change vs veh, DNAJB6 / RFU, CACNA2D3 / Fold change vs veh, CACNA2D3 / RFU, DTX4 / Fold change vs veh, DTX4 / RFU, TFCP2 / Fold change vs veh, TFCP2 / RFU, GMCL1 /// GMCL1P1 / Fold change vs veh, GMCL1 /// GMCL1P1 / RFU, AEBP2 / Fold change vs veh, AEBP2 / RFU, SNHG1 /// SNORD22 /// SNORD25 /// SNORD26 /// SNORD27 /// SNORD28 /// SNORD29 /// SNORD31 / Fold change vs veh, SNHG1 /// SNORD22 /// SNORD25 /// SNORD26 /// SNORD27 /// SNORD28 /// SNORD29 /// SNORD31 / Fold change (Aza/veh), C12orf56 (ProbeSet 11735607_a_at) / Fold change (ACY-1035/veh), C12orf56 (ProbeSet 11735607_a_at) / Fold change (Aza/veh), FGFR1OP (ProbeSet 11751329_s_at) / Fold change (ACY-1035/veh), FGFR1OP (ProbeSet 11751329_s_at) / Fold change (Aza/veh), VPS36 (ProbeSet 11739960_a_at) / Fold change (ACY-1035/veh), VPS36 (ProbeSet 11739960_a_at) / RFU SYPL1 (11715823_x_at) / Fold change /veh SYPL1 (11715823_x_at) / RFU IGFBP7 (11715501_s_at) / Fold change /veh IGFBP7 (11715501_s_at) / RFU REEP3 (11722064_at) / Fold change /veh REEP3 (11722064_at) / RFU IGLL1 (11728026_x_at) / Fold change /veh IGLL1 (11728026_x_at): dose or concentration left out as unconfirmed. In kind it is cell-based, human. The conditions noted are these: MV-4-11 cells, 48 hours.

With `Nc1ccc(-c2cccs2)cc1NC(=O)c1ccc2c(c1)cc(C1CC1)n2CCN1CCOCC1` [ACY-1035], the “RFU KRT8 (11758188_x_at)” value worked out at 20.03 RFU.
